Results reported in US20240325298A1, “COMPOSITIONS, METHODS AND SYSTEMS FOR AEROSOL DRUG DELIVERY” (AstraZeneca Pharmaceuticals LP, priority 2021, published 2024).

Columns and labels:
[1] = Particle size distribution by laser diffraction (optical diameter); assay type: physicochemical
Text: When referred to herein, the term “optical diameter” indicates the size of a particle as measured by the Fraunhofer diffraction mode using a laser diffraction particle size analyzer equipped with a dry powder dispenser (e.g., Sympatec GmbH, Clasthal-Zellerfeld, Germany).
Suspending particles were manufactured by spray drying an emulsion of PFOB (perfluorooctyl bromide) and water stabilized by DSPC (1,2-Distearoyl-sn-Glycero-3-Phosphocholine). […] The particle size distribution of the suspending particles was determined by laser diffraction.
Active agent particles formed of budesonide, 16,17-(butylidenebis(oxy))-11,21-dihydroxy-(11-β,16-α)-pregna-1,4-diene-3,20-dione, were formed by micronizing budesonide using a jet mill. The particle size distribution of the budesonide (BD) was determined by laser diffraction.

[2] = NGI aerosol performance stability data after storage of the MDI (valve down, protected); assay type: physicochemical; settings: stored valve down and protected at 25° C./60% RH
[3] = budesonide/formoterol co-suspension in HFO-1234ze(E)

stability of the aPSD [2, 3] | stability of the aPSD ([2]; budesonide/albuterol co-suspension in HFO-1234ze(E)) | Molecule | optical diameter that 50% by volume of the particles are smaller than [1] | optical diameter that 90% by volume of the particles are smaller than [1]
– | – | COc1ccc(CC(C)NCC(O)c2ccc(O)c(NC=O)c2)cc1.O=C(O)/C=C/C(=O)O (racemic) [formoterol fumarate, (±)-2-hydroxy-5-[(1RS)-1-hydroxy-2-[[(1RS)-2-(4-methoxyphenyl)-1-methylethyl]-amino]ethyl]formanilide fumarate] | smaller than 1.6 μm | smaller than 3.9 μm
stable for twelve months | – | CCCCCCCCCCCCCCCCCC(=O)OC[C@H](COP(=O)([O-])OCC[N+](C)(C)C)OC(=O)CCCCCCCCCCCCCCCCC [DSPC, 1,2-Distearoyl-sn-Glycero-3-Phosphocholine] | – | –
stable for twelve months | stable for twelve months | CCCC1O[C@@H]2C[C@H]3[C@@H]4CCC5=CC(=O)C=C[C@]5(C)[C@H]4[C@@H](O)C[C@]3(C)[C@]2(C(=O)CO)O1 (stereo partly drawn) [budesonide, 16,17-(butylidenebis(oxy))-11,21-dihydroxy-(11-β,16-α)-pregna-1,4-diene-3,20-dione] | – | –
– | – | C[N+]1(C)CCC(OC(=O)C(O)(c2ccccc2)C2CCCC2)C1.[Br-] (stereo not drawn) [glycopyrrolate, Pyrrolidinium, 3-((cyclopentylhydroxyphenylacetyl)oxy)-1,1-dimethyl-, bromide] | smaller than 2.1 μm | smaller than 5 μm
– | – | albuterol sulfate | smaller than 1.5 μm | smaller than 3.3 μm
